From US10577363B2, “Substituted piperidine compounds” (EPIZYME, INC., priority 2014, dated 2020)

What was measured:
[1] = target: T1, SMYD3 (Homo sapiens (Human), UniProt Q9H7B4); test: SMYD3 cell assay (Trimethyl-MEKK2 In-Cell Western in 293T/17 cells); type: cell-based; details: average of n = 1 to n = 50; read-out: SMYD3 Cell IC50
Summary of the method: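 In-Cell Western readout: methanol-fixed cells stained for trimethyl-MEKK2 and flag tag, ratio per well normalized to DMSO and background controls.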

[2] = target: T1, SMYD3; test: SMYD3 biochemical assay (SPA, 3H-SAM methylation of MEKK2 protein substrate); details: average of n = 1 to n = 50; read-out: SMYD3 Biochem IC50
Summary of the method: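 Enzyme: untagged full-length human SMYD3 from E. coli; substrate GST-tagged MEKK2 from insect cells. Buffer 25 mM Tris-Cl pH 8.0, 1 mM TCEP, 0.005% BSG/Tween 20. 30 min compound–enzyme preincubation at RT; 3H-SAM/MEKK2 start; stop with cold SAM (100 uM final); SPA readout in cpm.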

T1 sequence (Q9H7B4 whole entry): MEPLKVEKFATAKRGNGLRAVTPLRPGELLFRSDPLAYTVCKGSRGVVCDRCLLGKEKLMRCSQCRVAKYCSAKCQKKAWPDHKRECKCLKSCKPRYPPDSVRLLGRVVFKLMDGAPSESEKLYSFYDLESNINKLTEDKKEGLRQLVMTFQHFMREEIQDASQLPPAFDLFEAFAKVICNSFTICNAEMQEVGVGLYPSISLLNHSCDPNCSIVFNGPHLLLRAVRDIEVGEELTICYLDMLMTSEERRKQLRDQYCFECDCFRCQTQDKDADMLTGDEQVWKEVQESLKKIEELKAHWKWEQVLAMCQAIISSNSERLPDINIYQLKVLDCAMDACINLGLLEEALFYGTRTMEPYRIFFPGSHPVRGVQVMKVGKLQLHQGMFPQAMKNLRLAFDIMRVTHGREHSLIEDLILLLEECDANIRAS

Compound | IC50 [1] [nM] | IC50 [2] [nM]
C[C@H]1CN(S(=O)(=O)CC2CCN(CCC(F)(F)F)CC2)CC[C@H]1NC(=O)c1cc(C2CC2)on1 [compound 698, 5-cyclopropyl-N-((3S,4R)-3-methyl-1-(((1-(3,3,3-trifluoropropyl)piperidin-4-yl)methyl)sulfonyl)piperidin-4-yl)isoxazole-3-carboxamide] | 746 | 179
CC1CN(S(=O)(=O)N2CC[C@H](NC(=O)c3cc(C4CC4)on3)C[C@@H]2C)CCN1C (stereo partly drawn) [compound 699, 5-cyclopropyl-N-((2S,4S)-1-((3,4-dimethylpiperazin-1-yl)sulfonyl)-2-methylpiperidin-4-yl)isoxazole-3-carboxamide] | 658 | 193
CC1CN(S(=O)(=O)N2CC[C@H](NC(=O)c3cc(C4CC4)on3)C[C@@H]2C)CC(C)N1 (stereo partly drawn) [compound 701, 5-cyclopropyl-N-((2S,4S)-1-((3,5-dimethylpiperazin-1-yl)sulfonyl)-2-methylpiperidin-4-yl)isoxazole-3-carboxamide] | 1840 | 210
CC1CN(S(=O)(=O)N2[C@@H]3CC[C@H]2C[C@@H](NC(=O)c2cc(C4CC4)on2)C3)CC(C)N1C (stereo partly drawn) [compound 702, 5-cyclopropyl-N-((1R,3r,5S)-8-((3,4,5-trimethylpiperazin-1-yl)sulfonyl)-8-azabicyclo[3.2.1]octan-3-yl)isoxazole-3-carboxamide] | 1240 | 215
CN(CCCS(=O)(=O)N1[C@@H]2CC[C@H]1C[C@@H](NC(=O)c1cc(C3CC3)on1)C2)CCN1CCOCC1 [compound 703, 5-cyclopropyl-N-((1R,3r,5S)-8-((3-(methyl(2-morpholinoethyl)amino)propyl)sulfonyl)-8-azabicyclo[3.2.1]octan-3-yl)isoxazole-3-carboxamide] | 804 | 217
O=C(N[C@H]1C[C@H]2CC[C@@H](C1)N2S(=O)(=O)CCNCCc1ccccc1)c1cc(C2CC2)on1 [compound 705, 5-cyclopropyl-N-((1R,3r,5S)-8-((2-(phenethylamino)ethyl)sulfonyl)-8-azabicyclo[3.2.1]octan-3-yl)isoxazole-3-carboxamide] | 1510 | 225
C[C@H]1C[C@@H](NC(=O)c2cc(C3CC3)on2)CCN1S(=O)(=O)c1cccc(N)n1 [compound 708, N-((2S,4S)-1-((6-aminopyridin-2-yl)sulfonyl)-2-methylpiperidin-4-yl)-5-cyclopropylisoxazole-3-carboxamide] | 1660 | 252
CN1CCC(N(C)S(=O)(=O)N2[C@@H]3CCC[C@@H]2CC(NC(=O)c2cc(C4CC4)on2)C3)CC1 (stereo partly drawn) [compound 709, 5-cyclopropyl-N-((1R,5R)-9-(N-methyl-N-(1-methylpiperidin-4-yl)sulfamoyl)-9-azabicyclo[3.3.1]nonan-3-yl)isoxazole-3-carboxamide] | 1920 | 258
C[C@H]1CN(S(=O)(=O)N2CCN(C)CC2)CC[C@H]1NC(=O)c1cc(C2CC2)on1 [compound 710, 5-cyclopropyl-N-((3S,4R)-3-methyl-1-((4-methylpiperazin-1-yl)sulfonyl)piperidin-4-yl)isoxazole-3-carboxamide] | 831 | 261
CC[C@@H]1CN(S(=O)(=O)N2CC[C@H](NC(=O)c3cc(C4CC4)on3)C[C@@H]2C)CCN1C [compound 711, 5-cyclopropyl-N-((2S,4S)-1-(((R)-3-ethyl-4-methylpiperazin-1-yl)sulfonyl)-2-methylpiperidin-4-yl)isoxazole-3-carboxamide] | 1150 | 272
C[C@@H]1CN(S(=O)(=O)N2CC[C@H](NC(=O)c3cc(C4CC4)on3)C[C@@H]2C)[C@@H](C)CN1C [compound 712, 5-cyclopropyl-N-((2S,4S)-2-methyl-1-(((2S,5R)-2,4,5-trimethylpiperazin-1-yl)sulfonyl)piperidin-4-yl)isoxazole-3-carboxamide] | 1100 | 275
CCC1CN(S(=O)(=O)N2[C@@H]3CC[C@H]2C[C@@H](NC(=O)c2cc(C4CC4)on2)C3)CCN1C (stereo partly drawn) [compound 713, 5-cyclopropyl-N-((1R,3r,5S)-8-((3-ethyl-4-methylpiperazin-1-yl)sulfonyl)-8-azabicyclo[3.2.1]octan-3-yl)isoxazole-3-carboxamide] | 1180 | 293
CN1CCC(N(C)S(=O)(=O)N2[C@@H]3CCC[C@H]2C[C@H](NC(=O)c2cc(C4CC4)on2)C3)CC1 [compound 718, 5-cyclopropyl-N-((1R,3s,5S)-9-(N-methyl-N-(1-methylpiperidin-4-yl)sulfamoyl)-9-azabicyclo[3.3.1]nonan-3-yl)isoxazole-3-carboxamide] | 1620 | 309
O=C(N[C@@H]1C[C@H]2CC[C@@H](C1)N2S(=O)(=O)CC1CCCNC1)c1cc(C2CC2)on1 (stereo partly drawn) [compound 721, 5-cyclopropyl-N-((1R,3s,5S)-8-((piperidin-3-ylmethyl)sulfonyl)-8-azabicyclo[3.2.1]octan-3-yl)isoxazole-3-carboxamide] | 1830 | 322
O=C(N[C@H]1C[C@H]2CC[C@@H](C1)N2S(=O)(=O)N1CCNC(c2ccccc2)C1)c1cc(C2CC2)on1 (stereo partly drawn) [compound 722, 5-cyclopropyl-N-((1R,3r,5S)-8-((3-phenylpiperazin-1-yl)sulfonyl)-8-azabicyclo[3.2.1]octan-3-yl)isoxazole-3-carboxamide] | 1520 | 326

Results, then the compound that gave them:

IC50 [1] [nM] | IC50 [2] [nM] | Compound
1550 | 170 | C[C@H]1CN(S(=O)(=O)NC2CCN(Cc3ccccc3)CC2)CC[C@H]1NC(=O)c1cc(C2CC2)on1 [compound 696, N-((3S,4R)-1-(N-(1-benzylpiperidin-4-yl)sulfamoyl)-3-methylpiperidin-4-yl)-5-cyclopropylisoxazole-3-carboxamide]
1560 | 178 | C[C@H]1C[C@@H](NC(=O)c2cc(C3CC3)on2)CCN1S(=O)(=O)CCCNc1ccccc1 [compound 697, 5-cyclopropyl-N-((2S,4S)-2-methyl-1-((3-(phenylamino)propyl)sulfonyl)piperidin-4-yl)isoxazole-3-carboxamide]
2110 | 194 | O=C(N[C@H]1CCN(S(=O)(=O)CC2CCCNC2)[C@@H](Cc2ccccc2)C1)c1cc(C2CC2)on1 (stereo partly drawn) [compound 700, N-((2S,4S)-2-benzyl-1-((piperidin-3-ylmethyl)sulfonyl)piperidin-4-yl)-5-cyclopropylisoxazole-3-carboxamide]
1210 | 238 | C[C@H]1C[C@@H](NC(=O)c2cc(C3CC3)on2)CCN1S(=O)(=O)c1ccncc1 [compound 706, 5-cyclopropyl-N-((2S,4S)-2-methyl-1-(pyridin-4-ylsulfonyl)piperidin-4-yl)isoxazole-3-carboxamide]
2540 | 247 | O=C(N[C@H]1CCN(S(=O)(=O)CC2CCN(CCCO)CC2)[C@@H](Cc2ccccc2)C1)c1cc(C2CC2)on1 [compound 707, N-((2S,4S)-2-benzyl-1-(((1-(3-hydroxypropyl)piperidin-4-yl)methyl)sulfonyl)piperidin-4-yl)-5-cyclopropylisoxazole-3-carboxamide]
3150 | 295 | CN(C1CCNCC1)S(=O)(=O)N1CC[C@@H](NC(=O)c2cc(C3CC3)on2)C[C@@H]1Cc1ccccc1 [compound 714, N-((2S,4R)-2-benzyl-1-(N-methyl-N-(piperidin-4-yl)sulfamoyl)piperidin-4-yl)-5-cyclopropylisoxazole-3-carboxamide]
3040 | 297 | CN(C1CCNCC1)S(=O)(=O)N1CC[C@H](NC(=O)c2cc(C3CC3)on2)C[C@H]1Cc1ccccc1 [compound 715, N-((2R,4S)-2-benzyl-1-(N-methyl-N-(piperidin-4-yl)sulfamoyl)piperidin-4-yl)-5-cyclopropylisoxazole-3-carboxamide]
3530 | 303 | C[C@@H]1C[C@H](NC(=O)c2cc(C3CC3)on2)CCN1S(=O)(=O)CCC(N)Cc1ccccc1 (stereo partly drawn) [compound 716, N-((2R,4R)-1-((3-amino-4-phenylbutyl)sulfonyl)-2-methylpiperidin-4-yl)-5-cyclopropylisoxazole-3-carboxamide]
2020 | 306 | O=C(N[C@H]1CCN(S(=O)(=O)C2CCNC2)[C@@H](Cc2ccccc2)C1)c1cc(C2CC2)on1 (stereo partly drawn) [compound 717, N-((2S,4S)-2-benzyl-1-(pyrrolidin-3-ylsulfonyl)piperidin-4-yl)-5-cyclopropylisoxazole-3-carboxamide]
1210 | 320 | C[C@H]1CN(S(=O)(=O)N(C)C2CCN(Cc3ccccc3)CC2)CC[C@H]1NC(=O)c1cc(C2CC2)on1 [compound 719, N-((3S,4R)-1-(N-(1-benzylpiperidin-4-yl)-N-methylsulfamoyl)-3-methylpiperidin-4-yl)-5-cyclopropylisoxazole-3-carboxamide]
2430 | 322 | COCCN1CCC(CS(=O)(=O)N2CC[C@H](NC(=O)c3cc(C4CC4)on3)C[C@@H]2Cc2ccccc2)CC1 [compound 720, N-((2S,4S)-2-benzyl-1-(((1-(2-methoxyethyl)piperidin-4-yl)methyl)sulfonyl)piperidin-4-yl)-5-cyclopropylisoxazole-3-carboxamide]
2730 | 326 | O=C(N[C@@H]1CCN(S(=O)(=O)CC2CCNCC2)[C@@H](Cc2ccccc2)C1)c1cc(C2CC2)on1 [compound 723, N-((2S,4R)-2-benzyl-1-((piperidin-4-ylmethyl)sulfonyl)piperidin-4-yl)-5-cyclopropylisoxazole-3-carboxamide]
